According to patent USRE39104E1, “Process for the production of dry pharmaceutical forms and the thus obtained pharmaceutical compositions” (Laboratoires Effik, priority 1994, dated 2006):

Assay: Solubility in water
Type: physicochemical
Protocol: The dosage of the amount of Medroxy progesterone acetate thus dissolved in water was determined by spectrophotometry at 241 nm.

solubility in water: very low
Compound: CC(=O)O[C@]1(C(C)=O)CC[C@H]2[C@@H]3C[C@H](C)C4=CC(=O)CC[C@]4(C)[C@H]3CC[C@@]21C [Medroxy progesterone acetate]
